Reference: PubChem BioAssay (NCI)
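The concentration for 50% growth inhibition is given as GI50. TGI denotes the concentration required for complete inhibition of growth.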

Tests used:
Test in all cases: DTP human tumour cell line panel, 384-well format
UACC-257 melanoma = tested on: UACC-257 melanoma
UACC-62 melanoma = tested on: UACC-62 melanoma
DU-145 prostate = tested on: DU-145 prostate
MDA-MB-231 breast = tested on: MDA-MB-231 breast
PC-3 prostate = tested on: PC-3 prostate
SF-268 CNS = tested on: SF-268 CNS
NCI-H460 NSCLC = tested on: NCI-H460 NSCLC
IGROV1 ovarian = tested on: IGROV1 ovarian
A549 NSCLC = tested on: A549 NSCLC
HCT-116 colon = tested on: HCT-116 colon
KM12 colon = tested on: KM12 colon
SK-MEL-2 melanoma = tested on: SK-MEL-2 melanoma
MALME-3M melanoma = tested on: MALME-3M melanoma

Cc1ccc(S(=O)(=O)Cc2nc(-c3ccc(C(=O)NCc4cccnc4)cc3)oc2C)cc1
GI50 (UACC-257 melanoma): 27.5 nM
TGI (UACC-257 melanoma): 59.6 nM
GI50 (UACC-62 melanoma): 16.5 nM
TGI (UACC-62 melanoma): 34.5 nM
GI50 (DU-145 prostate): 15.9 nM
TGI (DU-145 prostate): 30.8 nM
GI50 (MDA-MB-231 breast): 39.4 nM
TGI (MDA-MB-231 breast): 149 nM
GI50 (PC-3 prostate): < 10 nM
TGI (PC-3 prostate): < 10 nM
GI50 (SF-268 CNS): < 10 nM
TGI (SF-268 CNS): 12.9 nM
GI50 (NCI-H460 NSCLC): 21.6 nM
TGI (NCI-H460 NSCLC): 47.3 nM
GI50 (IGROV1 ovarian): 11.2 nM
TGI (IGROV1 ovarian): 23.7 nM
GI50 (A549 NSCLC): 19.4 nM
TGI (A549 NSCLC): 41.9 nM
GI50 (HCT-116 colon): < 10 nM
TGI (HCT-116 colon): < 10 nM
GI50 (KM12 colon): < 10 nM
TGI (KM12 colon): 11.9 nM
GI50 (SK-MEL-2 melanoma): < 10 nM
TGI (SK-MEL-2 melanoma): < 10 nM
GI50 (MALME-3M melanoma): 19.1 nM
TGI (MALME-3M melanoma): 43.8 nM
